This note sets out measurements from article PMC9890585 (Chemical Science, 2022).

The structures appear in SMILES notation.

This assay has as its target Concanavalin A (Con A) (Canavalia ensiformis, UniProt P02866). It is filed as biochemical, jack bean (Canavalia ensiformis). The conditions noted are these: 1000 equiv. added after 180 min.

With `COC1OC(CO)C(O)C(O)C1O` [methyl-α-D-mannose], the “effect of competitive inhibitor on Con A-complex aggregates” value is recorded as “immediate deaggregation”.
